According to ChEMBL document CHEMBL4316596, “Antimicrobial Peptides with High Proteolytic Resistance for Combating Gram-Negative Bacteria” (J Med Chem, 2019):
Positions of bridges follow the written chain, without caps; N, C: chain ends. Non-standard residues stand in square brackets, D forms with d. Residues, ends and D or L forms follow the SMILES beside them. *: point of attachment. X1 = CC[C@H](C)CCCCC(=O)*; Dab = NCC[C@H](N)C(=O)O

Key:
Escherichia coli [1] = assay: Antimicrobial activity against Escherichia coli ATCC 25922 after 24 hrs by NCCLS-protocol based assay; type: functional; details: ATCC 25922, 24 h
Escherichia coli [2] = assay: Antimicrobial activity against Escherichia coli UB1005 after 24 hrs by NCCLS-protocol based assay; type: functional; details: UB1005, 24 h
Escherichia coli [3] = assay: Antimicrobial activity against Escherichia coli 078 after 24 hrs by NCCLS-protocol based assay; type: functional; details: Escherichia coli, 078, 24 h
Escherichia coli [4] = assay: Antimicrobial activity against Escherichia coli K88 after 24 hrs by NCCLS-protocol based assay; type: functional; details: K88, 24 h
Escherichia coli [5] = assay: Antimicrobial activity against Escherichia coli K99 after 24 hrs by NCCLS-protocol based assay; type: functional; details: K99, 24 h
Pseudomonas aeruginosa [6] = assay: Antimicrobial activity against Pseudomonas aeruginosa ATCC 27853 after 24 hrs by NCCLS-protocol based assay; type: functional; details: ATCC 27853, 24 h
Pseudomonas aeruginosa [7] = assay: Antimicrobial activity against Pseudomonas aeruginosa PAO1 after 24 hrs by NCCLS-protocol based assay; type: functional; details: PAO1, 24 h
Pseudomonas aeruginosa [8] = assay: Antimicrobial activity against Pseudomonas aeruginosa CICC 21630 clinical isolates after 24 hrs by NCCLS-protocol based assay; type: functional; details: CICC 21630, 24 h
Pseudomonas aeruginosa [9] = assay: Antimicrobial activity against Pseudomonas aeruginosa 26305 clinical isolates after 24 hrs by NCCLS-protocol based assay; type: functional; details: Pseudomonas aeruginosa, 26305, 24 h
Pseudomonas aeruginosa [10] = assay: Antimicrobial activity against Pseudomonas aeruginosa CICC 21625 clinical isolates after 24 hrs by NCCLS-protocol based assay; type: functional; details: CICC 21625, 24 h
Pseudomonas aeruginosa [11] = assay: Antimicrobial activity against Pseudomonas aeruginosa 25349 clinical isolates after 24 hrs by NCCLS-protocol based assay; type: functional; details: Pseudomonas aeruginosa, 25349, 24 h
Salmonella typhimurium [12] = assay: Antimicrobial activity against Salmonella typhimurium ATCC 14028 after 24 hrs by NCCLS-protocol based assay; type: functional, Salmonella enterica subsp. enterica serovar Typhimurium; details: Salmonella enterica, ATCC 14028, 24 h
Salmonella typhimurium [13] = assay: Antimicrobial activity against Salmonella typhimurium C7731 after 24 hrs by NCCLS-protocol based assay; type: functional, Salmonella enterica subsp. enterica serovar Typhimurium; details: Salmonella enterica, C7731, 24 h
[14] = Antimicrobial activity against Salmonella pullorum C7913 after 24 hrs by NCCLS-protocol based assay; type: functional, Salmonella enterica subsp. enterica serovar Pullorum; details: Salmonella enterica, C7913, 24 h
Acinetobacter baumannii [15] = assay: Antimicrobial activity against Acinetobacter baumannii after 24 hrs by NCCLS-protocol based assay; type: functional
Klebsiella pneumoniae [16] = assay: Antimicrobial activity against Klebsiella pneumoniae after 24 hrs by NCCLS-protocol based assay; type: functional
Escherichia coli [17] = assay: Bactericidal activity against Escherichia coli ATCC 25922 incubated for 4 hrs followed by culture spread on agar plates and cultured overnight; type: functional; details: ATCC 25922, 4 h, read-out: MBC>99.9
Escherichia coli [18] = assay: Bactericidal activity against Escherichia coli UB1005 incubated for 4 hrs followed by culture spread on agar plates and cultured overnight; type: functional; details: UB1005, 4 h, read-out: MBC>99.9
Escherichia coli [19] = assay: Bactericidal activity against Escherichia coli 078 incubated for 4 hrs followed by culture spread on agar plates and cultured overnight; type: functional; details: Escherichia coli, 078, 4 h; read-out: MBC>99.9
Escherichia coli [20] = assay: Bactericidal activity against Escherichia coli K88 incubated for 4 hrs followed by culture spread on agar plates and cultured overnight; type: functional; details: K88, 4 h, read-out: MBC>99.9
Escherichia coli [21] = assay: Bactericidal activity against Escherichia coli K99 incubated for 4 hrs followed by culture spread on agar plates and cultured overnight; type: functional; details: K99, 4 h, read-out: MBC>99.9
Pseudomonas aeruginosa [22] = assay: Bactericidal activity against Pseudomonas aeruginosa ATCC 27853 incubated for 4 hrs followed by culture spread on agar plates and cultured overnight; type: functional; details: ATCC 27853, 4 h, read-out: MBC>99.9
Pseudomonas aeruginosa [23] = assay: Bactericidal activity against Pseudomonas aeruginosa PAO1 incubated for 4 hrs followed by culture spread on agar plates and cultured overnight; type: functional; details: PAO1, 4 h, read-out: MBC>99.9
Pseudomonas aeruginosa [24] = assay: Bactericidal activity against Pseudomonas aeruginosa CICC 21630 clinical isolates incubated for 4 hrs followed by culture spread on agar plates and cultured overnight; type: functional; details: CICC 21630, 4 h, read-out: MBC>99.9
Pseudomonas aeruginosa [25] = assay: Bactericidal activity against Pseudomonas aeruginosa 26305 clinical isolates incubated for 4 hrs followed by culture spread on agar plates and cultured overnight; type: functional; details: Pseudomonas aeruginosa, 26305, 4 h; read-out: MBC>99.9
Pseudomonas aeruginosa [26] = assay: Bactericidal activity against Pseudomonas aeruginosa CICC 21625 clinical isolates incubated for 4 hrs followed by culture spread on agar plates and cultured overnight; type: functional; details: CICC 21625, 4 h, read-out: MBC>99.9
Pseudomonas aeruginosa [27] = assay: Bactericidal activity against Pseudomonas aeruginosa 25349 clinical isolates incubated for 4 hrs followed by culture spread on agar plates and cultured overnight; type: functional; details: Pseudomonas aeruginosa, 25349, 4 h; read-out: MBC>99.9
Salmonella typhimurium [28] = assay: Bactericidal activity against Salmonella typhimurium ATCC 14028 incubated for 4 hrs followed by culture spread on agar plates and cultured overnight; type: functional, Salmonella enterica subsp. enterica serovar Typhimurium; details: Salmonella enterica, ATCC 14028, 4 h; read-out: MBC>99.9
Salmonella typhimurium [29] = assay: Bactericidal activity against Salmonella typhimurium C7731 incubated for 4 hrs followed by culture spread on agar plates and cultured overnight; type: functional, Salmonella enterica subsp. enterica serovar Typhimurium; details: Salmonella enterica, C7731, 4 h; read-out: MBC>99.9
[30] = Bactericidal activity against Salmonella pullorum C7913 incubated for 4 hrs followed by culture spread on agar plates and cultured overnight; type: functional, Salmonella enterica subsp. enterica serovar Pullorum; details: Salmonella enterica, C7913, 4 h; read-out: MBC>99.9
Acinetobacter baumannii [31] = assay: Bactericidal activity against Acinetobacter baumannii incubated for 4 hrs followed by culture spread on agar plates and cultured overnight; type: functional; details: read-out: MBC>99.9
Klebsiella pneumoniae [32] = assay: Bactericidal activity against Klebsiella pneumoniae incubated for 4 hrs followed by culture spread on agar plates and cultured overnight; type: functional; details: read-out: MBC>99.9

CC[C@H](C)CCCCC(=O)N[C@@H](CCN)C(=O)N[C@H](C(=O)N[C@@H](CCN)C(=O)N[C@H]1CCNC(=O)[C@H]([C@@H](C)O)NC(=O)[C@H](CCN)NC(=O)[C@H](CCN)NC(=O)[C@H](CC(C)C)NC(=O)[C@@H](Cc2ccccc2)NC(=O)[C@H](CCN)NC1=O)[C@@H](C)O (X1-[Dab]T[Dab][Dab][Dab][dF]L[Dab][Dab]T; lactam 4-C)
1 µM: MIC95 (Escherichia coli [1]) | MIC95 (Escherichia coli [3]) | MBC (Escherichia coli [18]) | MBC (Escherichia coli [20]) | MBC [30]
0.25 µM: MIC95 (Acinetobacter baumannii [15]) | MBC (Acinetobacter baumannii [31])
8 µM: MBC (Pseudomonas aeruginosa [24]) | MBC (Pseudomonas aeruginosa [26]) | MBC (Klebsiella pneumoniae [32])
2 µM: MIC95 (Escherichia coli [5]) | MIC95 (Pseudomonas aeruginosa [6]) | MIC95 (Pseudomonas aeruginosa [11]) | MIC95 (Salmonella typhimurium [12]) | MIC95 (Salmonella typhimurium [13]) | MBC (Escherichia coli [17]) | MBC (Escherichia coli [19]) | MBC (Escherichia coli [21]) | MBC (Pseudomonas aeruginosa [22])
4 µM: MIC95 (Pseudomonas aeruginosa [8]) | MIC95 (Pseudomonas aeruginosa [9]) | MIC95 (Pseudomonas aeruginosa [10]) | MIC95 (Klebsiella pneumoniae [16]) | MBC (Pseudomonas aeruginosa [25]) | MBC (Pseudomonas aeruginosa [27]) | MBC (Salmonella typhimurium [28]) | MBC (Salmonella typhimurium [29])
16 µM: MIC95 (Pseudomonas aeruginosa [7])
32 µM: MBC (Pseudomonas aeruginosa [23])
0.5 µM: MIC95 (Escherichia coli [2]) | MIC95 (Escherichia coli [4]) | MIC95 [14]

NCC[C@H](O)C(=O)N[C@@H]1C[C@H](N)[C@@H](O[C@H]2O[C@H](CN)[C@@H](O)[C@H](O)[C@H]2O)[C@H](O)[C@H]1O[C@H]1O[C@H](CO)[C@@H](O)[C@H](N)[C@H]1O [AMIKACIN]
0.25 µM: MIC95 (Pseudomonas aeruginosa [11]) | MBC (Pseudomonas aeruginosa [22]) | MBC (Pseudomonas aeruginosa [26]) | MBC (Pseudomonas aeruginosa [27])
> 64 µM: MIC95 (Pseudomonas aeruginosa [9]) | MBC (Pseudomonas aeruginosa [25])
0.0625 µM: MIC95 (Escherichia coli [1]) | MIC95 (Escherichia coli [2]) | MIC95 (Escherichia coli [3]) | MIC95 (Escherichia coli [4]) | MIC95 (Escherichia coli [5]) | MIC95 (Pseudomonas aeruginosa [7]) | MIC95 (Salmonella typhimurium [13]) | MIC95 [14] | MIC95 (Acinetobacter baumannii [15]) | MIC95 (Klebsiella pneumoniae [16]) | MBC (Escherichia coli [19]) | MBC (Escherichia coli [20]) | MBC [30]
0.125 µM: MIC95 (Pseudomonas aeruginosa [6]) | MIC95 (Pseudomonas aeruginosa [8]) | MIC95 (Pseudomonas aeruginosa [10]) | MIC95 (Salmonella typhimurium [12]) | MBC (Escherichia coli [17]) | MBC (Escherichia coli [18]) | MBC (Escherichia coli [21]) | MBC (Pseudomonas aeruginosa [23]) | MBC (Pseudomonas aeruginosa [24]) | MBC (Salmonella typhimurium [28]) | MBC (Salmonella typhimurium [29]) | MBC (Acinetobacter baumannii [31]) | MBC (Klebsiella pneumoniae [32])

CN[C@H](CC(C)C)C(=O)N[C@H]1C(=O)N[C@@H](CC(N)=O)C(=O)N[C@H]2C(=O)N[C@H]3C(=O)N[C@H](C(=O)N[C@H](C(=O)O)c4cc(O)cc(O)c4-c4cc3ccc4O)[C@H](O)c3ccc(c(Cl)c3)Oc3cc2cc(c3O[C@@H]2O[C@H](CO)[C@@H](O)[C@H](O)[C@H]2O[C@H]2C[C@](C)(N)[C@H](O)[C@H](C)O2)Oc2ccc(cc2Cl)[C@H]1O [VANCOMYCIN]
32 µM: MIC95 (Pseudomonas aeruginosa [8]) | MBC (Klebsiella pneumoniae [32])
8 µM: MIC95 (Escherichia coli [1]) | MIC95 (Pseudomonas aeruginosa [7]) | MIC95 (Salmonella typhimurium [12]) | MIC95 (Salmonella typhimurium [13]) | MIC95 [14] | MBC (Salmonella typhimurium [28]) | MBC [30]
64 µM: MIC95 (Pseudomonas aeruginosa [9]) | MIC95 (Pseudomonas aeruginosa [10]) | MIC95 (Pseudomonas aeruginosa [11]) | MBC (Pseudomonas aeruginosa [24])
> 64 µM: MIC95 (Pseudomonas aeruginosa [6]) | MBC (Pseudomonas aeruginosa [22]) | MBC (Pseudomonas aeruginosa [25]) | MBC (Pseudomonas aeruginosa [26]) | MBC (Pseudomonas aeruginosa [27])
16 µM: MIC95 (Escherichia coli [2]) | MIC95 (Klebsiella pneumoniae [16]) | MBC (Escherichia coli [17]) | MBC (Escherichia coli [18]) | MBC (Pseudomonas aeruginosa [23]) | MBC (Salmonella typhimurium [29])
2 µM: MIC95 (Escherichia coli [4]) | MIC95 (Acinetobacter baumannii [15]) | MBC (Acinetobacter baumannii [31])
4 µM: MIC95 (Escherichia coli [3]) | MIC95 (Escherichia coli [5]) | MBC (Escherichia coli [19]) | MBC (Escherichia coli [20]) | MBC (Escherichia coli [21])

H-IKPIIKPIIKPIIKPI-NH2
> 64 µM: MIC95 (Escherichia coli [1]) | MIC95 (Escherichia coli [2]) | MIC95 (Escherichia coli [3]) | MIC95 (Escherichia coli [4]) | MIC95 (Escherichia coli [5]) | MIC95 (Pseudomonas aeruginosa [6]) | MIC95 (Pseudomonas aeruginosa [7]) | MIC95 (Pseudomonas aeruginosa [8]) | MIC95 (Pseudomonas aeruginosa [9]) | MIC95 (Pseudomonas aeruginosa [10]) | MIC95 (Pseudomonas aeruginosa [11]) | MIC95 (Salmonella typhimurium [12]) | MIC95 (Salmonella typhimurium [13]) | MIC95 [14] | MIC95 (Acinetobacter baumannii [15]) | MIC95 (Klebsiella pneumoniae [16]) | MBC (Escherichia coli [17]) | MBC (Escherichia coli [18]) | MBC (Escherichia coli [19]) | MBC (Escherichia coli [20]) | MBC (Escherichia coli [21]) | MBC (Pseudomonas aeruginosa [22]) | MBC (Pseudomonas aeruginosa [23]) | MBC (Pseudomonas aeruginosa [24]) | MBC (Pseudomonas aeruginosa [25]) | MBC (Pseudomonas aeruginosa [26]) | MBC (Pseudomonas aeruginosa [27]) | MBC (Salmonella typhimurium [28]) | MBC (Salmonella typhimurium [29]) | MBC [30] | MBC (Acinetobacter baumannii [31]) | MBC (Klebsiella pneumoniae [32])

H-IKPIIKPIIKPIIKPIIKPI-NH2
> 64 µM: MIC95 (Escherichia coli [1]) | MIC95 (Escherichia coli [2]) | MIC95 (Escherichia coli [3]) | MIC95 (Escherichia coli [4]) | MIC95 (Escherichia coli [5]) | MIC95 (Pseudomonas aeruginosa [6]) | MIC95 (Pseudomonas aeruginosa [7]) | MIC95 (Pseudomonas aeruginosa [8]) | MIC95 (Pseudomonas aeruginosa [9]) | MIC95 (Pseudomonas aeruginosa [10]) | MIC95 (Pseudomonas aeruginosa [11]) | MIC95 (Salmonella typhimurium [12]) | MIC95 (Salmonella typhimurium [13]) | MIC95 [14] | MIC95 (Acinetobacter baumannii [15]) | MIC95 (Klebsiella pneumoniae [16]) | MBC (Escherichia coli [17]) | MBC (Escherichia coli [18]) | MBC (Escherichia coli [19]) | MBC (Escherichia coli [20]) | MBC (Escherichia coli [21]) | MBC (Pseudomonas aeruginosa [22]) | MBC (Pseudomonas aeruginosa [23]) | MBC (Pseudomonas aeruginosa [24]) | MBC (Pseudomonas aeruginosa [25]) | MBC (Pseudomonas aeruginosa [26]) | MBC (Pseudomonas aeruginosa [27]) | MBC (Salmonella typhimurium [28]) | MBC (Salmonella typhimurium [29]) | MBC [30] | MBC (Acinetobacter baumannii [31]) | MBC (Klebsiella pneumoniae [32])
